Test results: ChEMBL document CHEMBL1201862, “PubChem BioAssay data set” (2004)
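Following 48 hours of exposure in 96-well plates, responses at five concentrations were used to interpolate endpoints linearly. At the GI50, growth is halved.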 Calls of active or inactive are those of the source. No stated cut-off is given here; in the data, active = GI50 up to about 1.1 µM and inactive = higher.

Columns and labels:
Assay in all cases: NCI anticancer screen, dose series, 48 h
[1] = test system: UACC-62
[2] = test system: RPMI-8226
[3] = test system: NCI-H522
[4] = test system: Malme-3M
[5] = test system: NCI-H460
[6] = test system: 786-0
[7] = test system: SF-539
[8] = test system: HT-29
[9] = test system: RXF 393
[10] = test system: CAKI-1
[11] = test system: IGROV-1
[12] = test system: NCI-H226
[13] = test system: MDA-MB-231
[14] = test system: Hs-578T
[15] = test system: NCI-H23
[16] = test system: EKVX
[17] = test system: SK-MEL-28
[18] = test system: SN12C
[19] = test system: A498

Structure (SMILES)	GI50 [1]	GI50 [2]	GI50 [3]	GI50 [4]	GI50 [5]	GI50 [6]	GI50 [7]	GI50 [8]	GI50 [9]	GI50 [10]	GI50 [11]	GI50 [12]	GI50 [13]	GI50 [14]	GI50 [15]	GI50 [16]	GI50 [17]	GI50 [18]	GI50 [19]
CC(C)(C)OC(=O)NC(Cc1ccccc1)OCc1ccccc1 (stereo not given)	15 µM (inactive)	26 µM (inactive)	11.4 µM (inactive)	23.6 µM (inactive)	21.3 µM (inactive)	17.2 µM (inactive)	21.4 µM (inactive)	21.1 µM (inactive)	20.8 µM (inactive)	19.6 µM (inactive)	> 10 µM (inactive)	18.7 µM (inactive)	15.3 µM (inactive)	23.3 µM (inactive)	16 µM (inactive)	17.4 µM (inactive)	17.9 µM (inactive)	26.1 µM (inactive)	
COc1cc(O)ccc1C(=S)SC	28.3 µM (inactive)	21.8 µM (inactive)	46 µM (inactive)	39.2 µM (inactive)	77.6 µM (inactive)	> 100 µM (inactive)	76.2 µM (inactive)	> 100 µM (inactive)	89.3 µM (inactive)	56.8 µM (inactive)	42.6 µM (inactive)	16 µM (inactive)	16.2 µM (inactive)	24.1 µM (inactive)	40.6 µM (inactive)	11.4 µM (inactive)	> 100 µM (inactive)	1.45 µM (inactive)	
COc1ccccc1/C=C1\NC(=S)N(/C=C2\C(=O)Oc3ccccc3C2=O)C1=O	23.3 µM (inactive)		39.4 µM (inactive)		41.4 µM (inactive)	52.5 µM (inactive)	25.5 µM (inactive)	43.5 µM (inactive)	38.5 µM (inactive)	> 100 µM (inactive)	26.6 µM (inactive)	14.6 µM (inactive)	40.7 µM (inactive)	> 100 µM (inactive)	35.9 µM (inactive)	16.9 µM (inactive)	51.5 µM (inactive)	> 100 µM (inactive)	
CN(C)CCNC(=O)c1cccc(NC(=O)c2ccccc2)c1[N+](=O)[O-]	> 100 µM (inactive)		> 100 µM (inactive)	12.8 µM (inactive)	93.5 µM (inactive)	> 100 µM (inactive)		25.5 µM (inactive)		> 100 µM (inactive)	> 100 µM (inactive)	> 100 µM (inactive)	> 100 µM (inactive)	> 100 µM (inactive)	> 100 µM (inactive)		> 100 µM (inactive)	> 100 µM (inactive)	> 100 µM (inactive)
COC(=O)c1c2c(cc3c1CC1(Cc4cc5c(cc4C1=O)CCC5)C3)CCC2 (stereo not given)	39.1 µM (inactive)	6.79 µM (inactive)	19.9 µM (inactive)	32.9 µM (inactive)	86.1 µM (inactive)	35.4 µM (inactive)	97.7 µM (inactive)	37.4 µM (inactive)		21 µM (inactive)	34.3 µM (inactive)	60.3 µM (inactive)	> 100 µM (inactive)	16.4 µM (inactive)	40.7 µM (inactive)	56.1 µM (inactive)	63 µM (inactive)	> 100 µM (inactive)	34.4 µM (inactive)
Cc1cc(C)c(S(=O)(=O)N2CCN(S(=O)(=O)c3c(C)cc(C)cc3C)OCCCCCO2)c(C)c1	> 100 µM (inactive)		> 100 µM (inactive)	> 100 µM (inactive)	> 100 µM (inactive)	> 100 µM (inactive)		> 100 µM (inactive)		> 100 µM (inactive)	> 100 µM (inactive)	> 100 µM (inactive)		> 100 µM (inactive)	> 100 µM (inactive)	> 100 µM (inactive)	> 100 µM (inactive)	> 100 µM (inactive)	> 100 µM (inactive)
COc1ccc(OC)c(CNc2ccc(O)c(C(=O)NCCc3ccc(F)cc3)c2)c1	8.89 µM (inactive)	2.83 µM (inactive)	2.83 µM (inactive)		13.2 µM (inactive)	23.8 µM (inactive)	15.8 µM (inactive)	18 µM (inactive)		21.5 µM (inactive)	5.68 µM (inactive)		7 µM (inactive)	22.7 µM (inactive)	17.1 µM (inactive)	19.7 µM (inactive)	3.3 µM (inactive)	19.5 µM (inactive)	16.4 µM (inactive)
CCNc1nc2c(ncn2C2CC(O)C(COP(=O)(O)O)O2)c(=O)[nH]1 (stereo not given)	> 100 µM (inactive)	> 100 µM (inactive)	> 100 µM (inactive)	> 100 µM (inactive)	> 100 µM (inactive)	> 100 µM (inactive)	> 100 µM (inactive)	> 100 µM (inactive)		> 100 µM (inactive)	> 100 µM (inactive)	> 100 µM (inactive)	> 100 µM (inactive)	> 100 µM (inactive)	> 100 µM (inactive)	> 100 µM (inactive)	> 100 µM (inactive)	> 100 µM (inactive)	> 100 µM (inactive)
O=C1/C(=C/c2ccc(Cl)cc2)CNC/C1=C\c1ccc(Cl)cc1	2.43 µM (inactive)	0.5 µM (active)	1.92 µM (inactive)	6.08 µM (inactive)	1.35 µM (inactive)	1.28 µM (inactive)	1.15 µM (inactive)			1.58 µM (inactive)	1.58 µM (inactive)	2.44 µM (inactive)	2.88 µM (inactive)	3.47 µM (inactive)	1.89 µM (inactive)		1.5 µM (inactive)	2.59 µM (inactive)	4.65 µM (inactive)
COc1cc2c(cc1OC)-c1cc3ccc(OC)c(OC)c3c[n+]1CC2 [PALMATINE CHLORIDE]	> 100 µM (inactive)	> 100 µM (inactive)	> 100 µM (inactive)	> 100 µM (inactive)	> 100 µM (inactive)	> 100 µM (inactive)	> 100 µM (inactive)	> 100 µM (inactive)	> 100 µM (inactive)	> 100 µM (inactive)	> 100 µM (inactive)	> 100 µM (inactive)	> 100 µM (inactive)	> 100 µM (inactive)		> 100 µM (inactive)	> 100 µM (inactive)	> 100 µM (inactive)	
COC(=O)C1(Cc2ccc3c(c2)CCC3)Cc2ccccc2C1	36.1 µM (inactive)	17.9 µM (inactive)	22.5 µM (inactive)	27.4 µM (inactive)	32.9 µM (inactive)	37.8 µM (inactive)	34.4 µM (inactive)	22.2 µM (inactive)		36.2 µM (inactive)	48.3 µM (inactive)	29.9 µM (inactive)	35.1 µM (inactive)	48.3 µM (inactive)	34.7 µM (inactive)	36.1 µM (inactive)	74.5 µM (inactive)	30.1 µM (inactive)	32.8 µM (inactive)
c1ccc2c(c1)CCN2CCc1c[nH]c2ccccc12	> 10 µM (inactive)	> 10 µM (inactive)	> 10 µM (inactive)	> 10 µM (inactive)	> 10 µM (inactive)	> 10 µM (inactive)	> 10 µM (inactive)	> 10 µM (inactive)	> 10 µM (inactive)	> 10 µM (inactive)	> 10 µM (inactive)	> 10 µM (inactive)	> 10 µM (inactive)	> 10 µM (inactive)	> 10 µM (inactive)	> 10 µM (inactive)	> 10 µM (inactive)	> 10 µM (inactive)	
Nn1c(Nc2ccc(S(N)(=O)=O)cc2)nnc(/C=C/c2c(O)ccc3ccccc23)c1=O	18.7 µM (inactive)	10.7 µM (inactive)	13.5 µM (inactive)	15.7 µM (inactive)	26.7 µM (inactive)	24.4 µM (inactive)	35.7 µM (inactive)	19.9 µM (inactive)		22.9 µM (inactive)	0.128 µM (active)			31 µM (inactive)	4.07 µM (inactive)	13.3 µM (inactive)	19.3 µM (inactive)	11.6 µM (inactive)	26.7 µM (inactive)
COc1ccc(N2C(=O)/C(=C/c3ccc(N(CCC#N)CCC#N)cc3)N=C2c2ccccc2)cc1	> 100 µM (inactive)	> 100 µM (inactive)		> 100 µM (inactive)	> 100 µM (inactive)	> 100 µM (inactive)	> 100 µM (inactive)	> 100 µM (inactive)	> 100 µM (inactive)	6.19 µM (inactive)	> 100 µM (inactive)	> 100 µM (inactive)	> 100 µM (inactive)	> 100 µM (inactive)		> 100 µM (inactive)	> 100 µM (inactive)	> 100 µM (inactive)	> 100 µM (inactive)
CC(=O)OC[C@@H](OC(C)=O)[C@@H](OC(C)=O)[C@H]1OC[C@@H]2C[C@H]([C@H]1OC(C)=O)N(Cc1ccccc1)O2	> 100 µM (inactive)	> 100 µM (inactive)		> 100 µM (inactive)	> 100 µM (inactive)	> 100 µM (inactive)	> 100 µM (inactive)	> 100 µM (inactive)	> 100 µM (inactive)	> 100 µM (inactive)	> 100 µM (inactive)	> 100 µM (inactive)	> 100 µM (inactive)	> 100 µM (inactive)	> 100 µM (inactive)	> 100 µM (inactive)	> 100 µM (inactive)	> 100 µM (inactive)	
N#Cc1nc(COCc2ccccc2)oc1N	> 100 µM (inactive)	74.8 µM (inactive)	2.97 µM (inactive)	28.7 µM (inactive)		> 100 µM (inactive)	> 100 µM (inactive)	> 100 µM (inactive)	> 100 µM (inactive)	> 100 µM (inactive)	> 100 µM (inactive)	> 100 µM (inactive)	> 100 µM (inactive)	> 100 µM (inactive)	> 100 µM (inactive)	> 100 µM (inactive)	> 100 µM (inactive)	> 100 µM (inactive)	
